Assay results published in patent US20220356147A1, “COMPOUNDS AND METHODS FOR POTENTIATING COLISTIN ACTIVITY” (University of Notre Dame du Lac, priority 2019, published 2022).
“And” between values parts separate entries of the source, which are not always exact repeats. Equal entries are not always repeated. Where two headings read alike, the source gives them in different places.

Tests used:
AB4106 and KPB9 = test: Initial screen for colistin resistance suppression, statements in words for both strains; format: cell-based, A. baumannii and K. pneumoniae; details: compound at 5 μM
Protocol: (§1) Broth microdilution method for measurement of colistin potentiation: Bacteria were cultured for 4 to 6 hours in CAMHB and diluted to 1.04×10^6 CFU/mL for AB 4106 and 1.96×10^6 CFU/mL for KP B9 in fresh CAMHB. To aliquots (4 mL) was added compound from stock solutions in DMSO. One aliquot was not dosed to allow measurement of the colistin MIC in the absence of compound. A 1 mL aliquot of each sample was dosed with colistin, and from this 200 μL was dispensed into the first row of a 96-well microtiter plate in which all but the final row of subsequent wells was prefilled with 100 μL of the corresponding compound dosed bacterial suspension The final row was filled with media to act as a sterility control and blank. Row one wells were mixed 6-7 times, then, 100 μL was withdrawn and transferred to row two. Row two wells were mixed 6-7 times followed by a 100 μL transfer from row two to row three. This procedure was used to serially dilute the rest of the rows of the microtiter plate, excluding the last prefilled row, which was used to measure growth in the presence of compound alone. Plates were then sealed with GLAD
(§2) Press'n Seal and incubated under stationary conditions at 37° C. […] MIC values were determined as the minimum concentration required to achieve 90% growth inhibition compared to growth in untreated wells.

[1] = system: A. baumannii 4106 (AB4106); test: Broth microdilution, colistin potentiation; format: cell-based
Protocol: as §1, §2

AB 4106 = test: Broth microdilution, standalone MIC of compound; format: cell-based, A. baumannii; details: standalone, no colistin, read-out: MIC of compound alone, AB 4106
Protocol: Broth microdilution method for the determination of minimum inhibitory concentrations: Bacteria were cultured for 4 to 6 hours in CAMHB and subcultured to 1.04×10^6 CFU/mL for AB 4106 and 1.96×10^6 CFU/mL for KP B9 in fresh CAMHB. To aliquots (1 mL) was added compound from stock solutions in DMSO, such that the compound concentration equaled the highest concentration tested. Samples were then dispensed (200 μL) into the first row of a 96-well microtiter plate in which all but the final row of subsequent wells were prefilled with 100 μL of the untreated bacterial subculture. The final row was filled with media to act as a sterility control and blank. Row one wells were mixed 6-7 times, then, 100 μL was withdrawn and transferred to row two. Row two wells were mixed 6-7 times followed by a 100 μL transfer from row two to row three. This procedure was used to serially dilute the rest of the rows of the microtiter plate, excluding the last prefilled row, which was used to measure growth in the absence of compound. Plates were then sealed with GLAD Press'n Seal and incubated under stationary conditions at 37 C. […] MIC values were determined as the minimum concentration required to achieve 90% growth inhibition compared to growth in untreated wells.

AB 4112 = test: Colistin potentiation, colistin-resistant isolate panel; format: cell-based, A. baumannii; details: for Colistin MIC against AB 4112: compound at 5 μM
AB 3942 = test: as above; format: cell-based, A. baumannii; details: for Colistin MIC against AB 3942: compound at 5 μM
AB 4119 = test: as above; format: cell-based, A. baumannii; details: for Colistin MIC against AB 4119: compound at 5 μM
AB 17978 mcr-1 = test: as above; format: cell-based, A. baumannii; details: for Colistin MIC against AB 17978 mcr-1: compound at 5 μM
AB 3941 = test: as above; format: cell-based, A. baumannii; details: for Colistin MIC against AB 3941: compound at 5 μM
[2] = compound at 5 μM, colistin alone 2048 μg/mL
[3] = in presence of compound at 1 μM
[4] = in presence of compound at 3 μM
[5] = in presence of compound at 5 μM

Compound | Colistin potentiation activity in words, compared to IMD-0354 (AB4106 and KPB9) | Colistin MIC fold reduction, AB 4106 [1, 2] | MIC (AB 4106; Acinetobacter baumannii, 16 h) | Colistin MIC fold reduction, AB 4106 ([1]; compound at 1 μM) | Colistin MIC fold reduction, AB 4106 ([1]; compound at 3 μM) | other results
O=C(Nc1cc(C(F)(F)F)cc(C(F)(F)F)c1)c1cccc(Cl)c1 [Compound 1] | abrogated activity | ≤ 16 fold | > 200 µM |  |  | 
COc1ccc(Cl)cc1C(=O)Nc1cc(C(F)(F)F)cc(C(F)(F)F)c1 [Compound 2] | abrogated activity | ≤ 16 fold | > 200 µM |  |  | 
O=C(Nc1cc(C(F)(F)F)cc(C(F)(F)F)c1)c1ccc(O)c(Cl)c1 [Compound 4, N-(3,5-bis(trifluoromethyl)phenyl)-3-chloro-4-hydroxybenzamide] | abolished activity | ≤ 16 fold | > 200 µM |  |  | 
O=C(Nc1cc(C(F)(F)F)cc(C(F)(F)F)c1)c1cccc(Cl)c1O [Compound 5] | essentially equipotent activity to IMD-0354 | 512 fold | 100 µM | ≤ 16 fold | 256 fold | 
O=C(Nc1cc(C(F)(F)F)cc(C(F)(F)F)c1)c1ccccc1O [Compound 6] | essentially equipotent activity to IMD-0354 | 512 fold | > 200 µM |  | 512 fold | 
O=C(Nc1cc(C(F)(F)F)cc(C(F)(F)F)c1)c1cccc(O)c1 [Compound 7, N-(3,5-bis(trifluoromethyl)phenyl)-3-hydroxybenzamide] | devoid of activity |  | > 200 µM |  |  | 
O=C(Nc1cc(C(F)(F)F)cc(C(F)(F)F)c1)c1cc(F)ccc1O [Compound 8] | essentially equipotent activity to IMD-0354 | 1024 fold | > 200 µM | 64 fold | 1024 fold | 
O=C(Nc1cc(C(F)(F)F)cc(C(F)(F)F)c1)c1cc(Br)ccc1O [Compound 9] | essentially equipotent activity to IMD-0354 | 1024 fold | > 100 µM | 128 fold | 1024 fold | 
O=C(Nc1cc(C(F)(F)F)cc(C(F)(F)F)c1)c1cc(-c2ccccc2)ccc1O [Compound 13] |  | 512 fold |  | 32 fold | 256 fold | Colistin MIC against AB 4112 (AB 4112): 8 µg/mL; Colistin MIC against AB 4106 [1, 3]: 64 µg/mL; Colistin MIC against AB 4106 [1, 4]: 8 µg/mL; Colistin MIC against AB 4106 [1, 5]: 4 µg/mL; Colistin MIC against AB 3942 (AB 3942): 32 µg/mL; Colistin MIC against AB 4119 (AB 4119): 2 µg/mL; Colistin MIC against AB 17978 mcr-1 (AB 17978 mcr-1): 4 µg/mL; Colistin MIC against AB 3941 (AB 3941): 16 µg/mL; MIC (AB 4106): >200 µM
O=C(Nc1cc(C(F)(F)F)cc(C(F)(F)F)c1)c1cc(Cl)cc(Cl)c1O [Compound 14] | four-fold less active than 15 | 512 fold | 100 µM | 32 fold | 512 fold | 
O=C(Nc1cc(C(F)(F)F)cc(C(F)(F)F)c1)c1ccc(C(F)(F)F)cc1O [Compound 15] | equipotent activity to IMD-0354 | 2048 fold | > 200 µM | 128 fold | 512 fold | 
O=C(Nc1cc(C(F)(F)F)ccc1C(F)(F)F)c1cc(Cl)ccc1O [Compound 17] | retained activity against KPB9 and AB4106 equivalent to IMD-0354 | 1024 fold | > 200 µM | 128 fold | 512 fold | 
O=C(Nc1ccc(C(F)(F)F)cc1C(F)(F)F)c1cc(Cl)ccc1O [Compound 18] | retained activity against KPB9 and AB4106 equivalent to IMD-0354 | 1024 fold | > 200 µM | 256 fold | 1024 fold | 
COc1cc(NC(=O)c2cc(Cl)ccc2O)cc(OC)c1 [Compound 19] | bereft of activity | ≤ 16 fold | > 200 µM |  |  | 
O=C(Nc1cc(C(F)(F)F)cc(C(F)(F)F)c1Br)c1cc(Cl)ccc1O [Compound 24] |  | 4096 fold |  | 512 fold | 2048 fold | Colistin MIC against AB 4112 (AB 4112): 0.25 µg/mL; Colistin MIC against AB 4106 [1, 3]: 4 µg/mL; Colistin MIC against AB 4106 [1, 4]: 1 µg/mL; Colistin MIC against AB 4106 [1, 5]: 1 µg/mL and 0.5 µg/mL; Colistin MIC against AB 3942 (AB 3942): 0.5 µg/mL; Colistin MIC against AB 4119 (AB 4119): 0.125 µg/mL; Colistin MIC against AB 17978 mcr-1 (AB 17978 mcr-1): 0.25 µg/mL; Colistin MIC against AB 3941 (AB 3941): 1 µg/mL; MIC (AB 4106): >200 µM
Nc1cc(NC(=O)c2cc(Cl)ccc2O)ccc1F [Compound 36, N-(3-amino-4-fluorophenyl)-5-chloro-2-hydroxybenzamide] | Neither compound displayed significant activity | ≤ 16 fold | > 200 µM |  |  | 
COc1ccc(NC(=O)c2cc(Cl)ccc2O)cc1 [Compound 38] | abolished activity | ≤ 16 fold | > 200 µM |  |  | 
O=C(Nc1ccccc1Cl)c1cc(Cl)ccc1O [Compound 39] | less active | 256 fold | > 200 µM |  |  | 
O=C(Nc1cc(C(F)(F)F)ccc1C(F)(F)F)c1cc(Cl)cc(Cl)c1O [Compound 61, N-(2,5-bis(trifluoromethyl)phenyl)-3,5-dichloro-2-hydroxybenzamide] | returned equipotent activity | ≤ 16 fold | > 200 µM |  |  | 
colistin [reference compound] |  |  |  |  |  | MIC of colistin alone, AB 4112 (AB 4112; absence of adjuvant): 2048 µg/mL; MIC of colistin alone, AB 3942 (AB 3942; absence of adjuvant): > 2048 µg/mL; MIC of colistin alone, AB 4119 (AB 4119; absence of adjuvant): 1024 µg/mL; MIC of colistin alone, AB 17978 mcr-1 (AB 17978 mcr-1; absence of adjuvant): 64 µg/mL; MIC of colistin alone, AB 3941 (AB 3941; absence of adjuvant): 1024 µg/mL
